# Experiments:
# VEGFR-2 kinase = target: T1, VEGFR-2 kinase (Homo sapiens, UniProt P35968); assay: VEGFR-2 inhibition testing (ELISA kit); assay type: biochemical
# T1 construct: purchased
# Protocol: Enzyme linked immunosorbent assay (ELISA) technique was applied to human VEGFR-2 ELISA kit to calculate IC50 of all new derivatives against VEGFR-2 kinase. The antibody specific to the enzyme was planted on a 96 well microplate to which different micromolar concentrations of the positive control and the new compounds was added. […] Finally, stop solution (50 µL) was added and the reading was immediately determined at 450 nm. To get the standard curve, the concentrations used were presented on the X-axis and the corresponding absorbances were on the Y-axis.
# HepG2 = assay: In vitro antitumor MTT assay, HepG2; assay type: cell-based, human; settings: Homo sapiens, HepG2; MTT, mean ± S.D. of three experiments
# Protocol: (§1) The antitumor assay was performed against the human cancer cell lines: HepG2, PC3, and MCF-7. The chemicals used in this test were supplied by Sigma-Aldrich with high analytical grade. National Cancer Institute (Cairo, Egypt) was the supplier of the cell lines tested which originally obtained from American Type Culture Collection (ATCC). MTT protocol was applied to quantitatively measure the antiproliferative activity of the new derivatives. In this test, the colour change is attributed to that the yellow tetrazolium bromide (MTT) is converted to formazan derivative which has purple colour. This biochemical reaction occurs only in viable cells by mitochondrial succinate dehydrogenase. The tested cells were initially cultured in RPMI-1640 medium with foetal bovine serum (10%). To the incubated cell, streptomycin (100 µg/mL) and penicillin (100 units/mL) were added in a 5% CO2 incubator at 37 °C. Then seeding of the cells was performed in a 96-well plate under 5% CO2 and at density of 1.0 × 10^4 cells/well at 37 °C for 48 h. Various non-toxic concentrations of the tested candidates were added and the cells were then incubated for further 24 h to the cells treated with the new compounds, MTT solution (20 µL at 5 mg/mL) was added, followed by 4 h incubation. One hundred microlitres of Dimethyl sulfoxide (DMSO) were added into each well to dissolve the purple formazan formed which is colorimetrically absorbed at 570 nm using a plate reader (EXL 800, USA). Finally, the percentages of cell viability was obtained as (A570 of treated samples/A570 of untreated sample) × 100.
# PC3 = assay: In vitro antitumor MTT assay, PC3; assay type: cell-based, human; settings: Homo sapiens, PC-3; MTT, mean ± S.D. of three experiments
# Protocol: as §1
# MCF-7 = assay: In vitro antitumor MTT assay, MCF-7; assay type: cell-based, human; settings: Homo sapiens, MCF7; MTT, mean ± S.D. of three experiments
# Protocol: as §1
# WI-38 = assay: Cytotoxicity against normal lung fibroblasts (MTT); assay type: cell-based; settings: normal human lung fibroblasts
# Protocol: as §1
# Of note, the cytotoxicity against normal human lung fibroblasts cell line (WI-38) were examined for the nine selected compounds.
# FGFR = assay: Multi-kinase assay (HTRF), FGFR; assay type: biochemical
# Protocol: Different kinases and ATP were obtained from Sigma. The specified kinase and its substrate was incubated with compound for 5 min in buffer solution to start the enzymatic reaction; ATP was then added to the reaction mixture and was maintained for 30 min at room temperature.
# T1 sequence (P35968 20-1356): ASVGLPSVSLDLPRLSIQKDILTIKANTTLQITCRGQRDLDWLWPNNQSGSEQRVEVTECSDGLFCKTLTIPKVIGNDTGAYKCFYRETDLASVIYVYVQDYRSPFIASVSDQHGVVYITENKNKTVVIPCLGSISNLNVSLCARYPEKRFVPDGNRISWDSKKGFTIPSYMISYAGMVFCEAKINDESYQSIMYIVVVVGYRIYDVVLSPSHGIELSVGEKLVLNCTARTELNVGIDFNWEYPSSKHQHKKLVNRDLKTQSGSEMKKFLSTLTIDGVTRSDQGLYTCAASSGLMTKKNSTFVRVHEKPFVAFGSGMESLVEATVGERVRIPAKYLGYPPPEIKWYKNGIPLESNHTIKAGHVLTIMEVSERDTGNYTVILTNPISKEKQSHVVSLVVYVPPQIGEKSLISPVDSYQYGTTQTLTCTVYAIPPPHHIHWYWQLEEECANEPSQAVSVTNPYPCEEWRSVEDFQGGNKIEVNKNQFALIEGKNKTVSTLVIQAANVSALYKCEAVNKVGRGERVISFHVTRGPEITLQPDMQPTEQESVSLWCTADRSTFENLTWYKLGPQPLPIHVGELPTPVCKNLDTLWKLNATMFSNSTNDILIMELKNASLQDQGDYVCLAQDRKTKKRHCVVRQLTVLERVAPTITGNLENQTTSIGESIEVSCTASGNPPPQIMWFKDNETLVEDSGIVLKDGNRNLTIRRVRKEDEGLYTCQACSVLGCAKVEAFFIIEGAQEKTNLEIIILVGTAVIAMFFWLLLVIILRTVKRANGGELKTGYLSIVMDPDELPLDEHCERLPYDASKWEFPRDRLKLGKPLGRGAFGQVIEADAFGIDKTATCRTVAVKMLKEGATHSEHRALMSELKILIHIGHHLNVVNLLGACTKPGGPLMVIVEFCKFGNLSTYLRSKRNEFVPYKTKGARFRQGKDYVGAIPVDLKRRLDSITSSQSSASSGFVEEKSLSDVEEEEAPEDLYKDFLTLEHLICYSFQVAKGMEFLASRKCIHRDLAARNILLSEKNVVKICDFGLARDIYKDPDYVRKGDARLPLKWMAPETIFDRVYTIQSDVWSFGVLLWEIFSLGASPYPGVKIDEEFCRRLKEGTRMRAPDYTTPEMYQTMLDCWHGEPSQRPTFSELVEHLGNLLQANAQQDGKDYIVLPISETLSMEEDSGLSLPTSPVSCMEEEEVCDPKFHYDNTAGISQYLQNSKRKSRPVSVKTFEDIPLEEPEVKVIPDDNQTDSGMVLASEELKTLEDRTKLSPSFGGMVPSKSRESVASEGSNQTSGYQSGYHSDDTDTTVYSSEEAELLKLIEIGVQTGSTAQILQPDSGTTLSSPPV
SMILES,melting point [°C],IC50 (VEGFR-2 kinase) [µM],IC50 (HepG2) [µM],IC50 (PC3) [µM],IC50 (MCF-7) [µM],IC50 (WI-38) [µM],IC50 (FGFR) [µM]
"O=C(Nc1ccc(Oc2nc3ccccc3nc2Cl)cc1)c1ccc(Cl)cc1 [Compound 20b, 4-Chloro-N-(4-((3-chloroquinoxalin-2-yl)oxy)phenyl)benzamide]",264 to 265,0.114 ± 0.00283,–,–,–,–,–
"O=C(Nc1ccc(Oc2nc3ccccc3nc2Cl)cc1)c1cccc(Cl)c1 [Compound 20c, 3-Chloro-N-(4-((3-chloroquinoxalin-2-yl)oxy)phenyl)benzamide]",243 to 244,0.0866 ± 0.00175,144 ± 9.51,157 ± 10,135 ± 9.02,402.9 ± 3.26,–
"O=C(Nc1ccc(Oc2nc3ccccc3nc2Cl)cc1)c1cccnc1 [Compound 20d, N-(4-((3-Chloroquinoxalin-2-yl)oxy)phenyl)nicotinamide]",219 to 220,0.0696 ± 0.00116,221 ± 11.4,> 300,246 ± 13.6,460.7 ± 4.04,–
"O=C(Nc1ccccc1)Nc1ccc(Oc2ccccc2[N+](=O)[O-])cc1 [Compound 22a, 1-(4-(2-Nitrophenoxy)phenyl)-3-phenylurea]",175 to 176,0.124 ± 0.00378,–,–,–,–,–
"CCCCNC(=O)Nc1ccc(Oc2ccccc2[N+](=O)[O-])cc1 [Compound 22b, 1-Butyl-3-(4-(2-nitrophenoxy)phenyl)urea]",163 to 164,0.107 ± 0.002,–,–,–,–,–
"O=C(Nc1ccc(Oc2ccccc2[N+](=O)[O-])cc1)c1ccccc1 [Compound 23a, N-(4–(2-Nitrophenoxy)phenyl)benzamide]",197 to 198,0.0748 ± 0.00167,153 ± 10.8,221 ± 12.9,234 ± 13.2,758.2 ± 5.15,–
"O=C(Nc1ccc(Oc2ccccc2[N+](=O)[O-])cc1)c1cccc(Cl)c1 [Compound 23b, 3-Chloro-N-(4–(2-nitrophenoxy)phenyl)benzamide]",169 to 170,0.105 ± 0.0025,–,–,–,–,–
"O=C(Nc1ccc(Oc2ccccc2[N+](=O)[O-])cc1)c1cccnc1 [Compound 23c, N-(4–(2-Nitrophenoxy)phenyl)nicotinamide]",160 to 161,0.119 ± 0.00316,–,–,–,–,–
"COc1cccc2c1C(=O)c1c(O)c3c(c(O)c1C2=O)C[C@@](O)(C(=O)CO)C[C@@H]3O[C@H]1C[C@H](N)[C@H](O)[C@H](C)O1 [Doxorubicin, reference compound]",–,–,14.6 ± 1.1,16.3 ± 1.1,12.4 ± 0.74,–,–
"C#Cc1cccc(Nc2ncnc3cc(OCCOC)c(OCCOC)cc23)c1 [Erlotinib, reference compound]",–,–,–,–,–,–,0.034 ± 0.00092
"CNC(=O)c1cc(Oc2ccc(NC(=O)Nc3ccc(Cl)c(C(F)(F)F)c3)cc2)ccn1 [Sorafenib, reference compound]",–,–,12.9 ± 0.85,19.4 ± 1.34,14.5 ± 1.68,–,–

# Source: PMC8757611, “Synthesis, biological evaluation, and molecular docking of new series of antitumor and apoptosis inducers designed as VEGFR-2 inhibitors” (Journal of Enzyme Inhibition and Medicinal Chemistry, 2022)
